# Measurements reported in PubChem BioAssay (NCI).
# Values joined by “and” are separate entries in the source; they are usually repeats but may differ in a detail not shown here. Equal values may be shown once.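 Exposure lasted 48 hours, with cells grown in 96-well plates and compounds tested at five concentrations. Abbreviation: GI50, concentration required for 50% inhibition of growth. At the TGI there is no net growth.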
# How the values were obtained:
# Assay in all cases: DTP human tumour cell line panel, 48 h
# [1] = tested on: HCT-116 colon
# [2] = tested on: K-562 leukemia
# [3] = tested on: NCI-H226 lung
# [4] = tested on: NCI-H522 lung
# [5] = tested on: RPMI-8226 leukemia
# [6] = tested on: RXF 393 renal
# [7] = tested on: SK-MEL-2 melanoma
# [8] = tested on: SR leukemia
# [9] = tested on: SW-620 colon
# [10] = tested on: T-47D breast
Compound,GI50 [1],TGI [1],GI50 [2],TGI [2],GI50 [3],TGI [3],GI50 [4],TGI [4],GI50 [5],TGI [5],GI50 [6],TGI [6],GI50 [7],TGI [7],GI50 [8],TGI [8],GI50 [9],TGI [9],GI50 [10],TGI [10]
COc1cc2c(cc1OC)-c1c(c3ccc([N+](=O)[O-])cc3c(=O)n1CCCN)C2=O,0.57 µM,1.46 µM,0.955 µM,2.65 µM,3.61 µM,12.1 µM,0.0615 µM,4.22 µM,0.812 µM,3.52 µM,1.21 µM,4.12 µM,5.95 µM,14.1 µM,0.0386 µM,0.346 µM,0.491 µM,5.92 µM,0.271 µM,8.47 µM
CC[C@@]1(O)C(=O)OCc2c1cc1n(c2=O)Cc2cc3c(NC(=O)CN)cccc3nc2-1,,> 56.1 µM,,> 100 µM,,3.79 µM,,56.3 µM,,28.6 µM,,0.354 µM,,14.8 µM,,< 0.0121 µM,,> 100 µM,,0.744 µM
CCN1CCC(CC(=O)Nc2n[nH]c3nc(-c4cccs4)c(Br)cc23)CC1,7.81 µM,> 23.4 µM,7.61 µM,> 19.2 µM,12.1 µM,> 25 µM,6.74 µM,> 16.8 µM,9.42 µM,24.8 µM,5.51 µM,16.8 µM,6.24 µM,11.4 µM,11.2 µM,> 25 µM,11.4 µM,> 25 µM,12.4 µM,> 25 µM
CO/N=C(/COc1c(-c2ccccc2)oc2ccccc2c1=O)c1ccc(F)cc1,39.3 µM,> 100 µM,> 100 µM,> 100 µM,> 100 µM,> 100 µM,36.4 µM,> 100 µM,72.1 µM,> 100 µM,76.6 µM,> 100 µM,58.4 µM,> 100 µM,22 µM,> 100 µM,> 100 µM,> 100 µM,> 100 µM,> 100 µM
O=C(/C=C\c1ccc2ccccc2n1)c1cc(Cl)ccc1O,3.38 µM,11.3 µM,3.46 µM,23.2 µM,9.41 µM,38.2 µM,2.88 µM,16 µM,2.15 µM,5.83 µM,2.3 µM,6.36 µM,11.7 µM,45.2 µM,2.48 µM,8.11 µM,1.84 µM,3.84 µM,3.68 µM,19 µM
C[C@@H]1COC(Nc2ccc3ncnc(Nc4ccc(OCc5nccs5)c(Cl)c4)c3c2)=N1,3.94 µM and 4.75 µM,> 10 µM and 19 µM,4.05 µM and 4.08 µM,> 10 µM and 33.2 µM,4.02 µM and 4.04 µM,> 10 µM and 18.2 µM,0.237 µM and 0.49 µM,> 10 µM and 4.65 µM,3.29 µM and 2.56 µM,> 10 µM and 11.1 µM,> 10 µM and 6.81 µM,> 10 µM and 20.7 µM,4.43 µM and 3.47 µM,> 10 µM and 11.1 µM,6.79 µM and 3.97 µM,> 10 µM and 21.9 µM,> 10 µM and 14.6 µM,> 10 µM and 59.7 µM,0.286 µM and 1.03 µM,> 10 µM and 12.5 µM
NC(=O)NCCSC1CCCCC1O (centres undefined),,> 100 µM,,> 100 µM,,> 100 µM,,> 100 µM,,> 100 µM,,> 100 µM,,> 100 µM,,> 100 µM,,> 100 µM,,> 100 µM
CCCCCCN1CCN(Cc2ccc(N(CC)CC)cc2)C(=O)C1=O,3.92 µM,> 100 µM,0.832 µM,75.4 µM,5.84 µM,27.8 µM,2.03 µM,5.14 µM,3.63 µM,19.2 µM,,,3.57 µM,21.2 µM,1.03 µM,13.4 µM,3.07 µM,> 100 µM,5.69 µM,> 100 µM
COc1ccc(-c2nc3sc4c(c3c(=O)[nH]2)CCCC4)c2ccccc12,0.371 µM,,,> 100 µM,1.41 µM,,,0.0179 µM,,> 100 µM,0.253 µM,0.799 µM,,,0.418 µM,,,> 100 µM,4.82 µM and 2.85 µM,> 100 µM
COc1ccc2c(c1)[C@@]1(C)CCC3c4ccc(O)cc4CCC3C1C2 (some centres undefined),14.4 µM,27.5 µM,14.8 µM,48.4 µM,18.7 µM,38.2 µM,16.4 µM,37.6 µM,14.8 µM,39.8 µM,10.5 µM,34.5 µM,,,16.3 µM,> 100 µM,16.9 µM,36.1 µM,11.7 µM,26.8 µM
CO/C(=N\N=C\c1cccc(C(F)(F)F)c1)c1ccncc1,,> 100 µM,3.08 µM,> 100 µM,,27.4 µM,6.41 µM,30.3 µM,7.15 µM,81.9 µM,,33.2 µM,22.6 µM,> 100 µM,3.33 µM,46.3 µM,,> 100 µM,,> 100 µM
CN1C(=O)C(c2c[nH]c3ccccc23)=C(c2c(-c3c[nH]c4ccccc34)[nH]c3ccccc23)C1=O,3.68 µM,11.2 µM,3.07 µM,> 100 µM,,,12.3 µM,> 100 µM,3.54 µM,17.5 µM,1.64 µM,6.07 µM,,,5.19 µM,9.68 µM,,,4.72 µM,66.8 µM
COc1ccc(-c2csc3c2-n2cccc2C3=O)cc1O,0.0271 µM,17 µM,< 0.01 µM,> 100 µM,12.1 µM,> 46.6 µM,< 0.01 µM,0.0434 µM,0.0176 µM,3.16 µM,,,,,< 0.01 µM,31.9 µM,< 0.0122 µM,> 100 µM,39.4 µM,> 100 µM
Cc1ccc2nc(N/N=C/c3cccc(C)n3)cc(C)c2c1,,32.1 µM,,> 100 µM,,48.6 µM,,39.8 µM,,42.5 µM,,31.6 µM,,34.8 µM,,45.3 µM,,40.4 µM,,38.7 µM
O=C(NC1(C(=O)O)CC1c1ccccc1)c1ccccc1 (centres undefined),,> 100 µM,,> 100 µM,,> 100 µM,,> 100 µM,,> 100 µM,,> 100 µM,,> 100 µM,,> 100 µM,,> 100 µM,,> 100 µM
C=C1C(=O)O[C@H]2C[C@@H]1CCC1(C)OC1CC/C(C)=C/CC[C@H]2C (some centres undefined),17.7 µM,31.5 µM,21.6 µM,41.2 µM,18.7 µM,39.4 µM,37.9 µM,> 100 µM,20.1 µM,41.9 µM,21.4 µM,43.1 µM,48.5 µM,> 100 µM,18.1 µM,33 µM,19.2 µM,36.9 µM,16.9 µM,37.6 µM
COc1cc(/C=C2\C(=O)Nc3ccccc32)cc(OC)c1OC,17.3 µM,> 100 µM,4.48 µM,> 100 µM,26.1 µM,> 100 µM,14.1 µM,90.4 µM,12 µM,61.5 µM,2.37 µM,10.6 µM,17.5 µM,82.6 µM,3.83 µM,> 100 µM,19.9 µM,> 100 µM,> 100 µM,> 100 µM
O=[N+]([O-])/C=C/c1ccc([N+](=O)[O-])cc1,1.52 µM,3.08 µM,2.4 µM,12.4 µM,2.06 µM,5.37 µM,3.83 µM,15 µM,2.25 µM,5.95 µM,1.52 µM,2.98 µM,14.3 µM,28.1 µM,2.29 µM,8.33 µM,1.49 µM,3.21 µM,2.78 µM,9.03 µM
CCOC(=O)/C(=C\c1ccc(F)cc1)C(C)=O,,91.8 µM,,> 100 µM,,75.2 µM,,29.5 µM,,53 µM,,34.8 µM,,41.2 µM,,64 µM,,> 100 µM,,63.9 µM
Cc1cc(NC(=O)NC(=O)c2ccccc2NC(=O)CN)ccc1Oc1ncc(Br)cn1,0.43 µM,26.1 µM and > 100 µM,0.0285 µM,,0.238 µM,,0.269 µM and 0.096 µM,2.24 µM and 0.472 µM,0.306 µM,57.1 µM and > 100 µM,< 0.01 µM,,21.2 µM,9.7 µM and 52.9 µM,0.0302 µM,55.8 µM and > 100 µM,0.506 µM,23.4 µM and > 100 µM,,47.4 µM
N/C(=N\c1nc2ccccc2s1)NC(=O)Nc1cccc2ccccc12,,,0.0765 µM,> 100 µM,0.6 µM,> 68.9 µM,0.0775 µM,,0.418 µM,> 100 µM,0.2 µM,0.898 µM,0.582 µM,34 µM,0.0591 µM,> 100 µM,0.26 µM,> 100 µM,0.556 µM,> 100 µM
COc1cc(OC)cc(-c2cncn2-c2ccc(-c3nc4cc(OC)cc(OC)c4s3)cc2)c1,4.94 µM,> 100 µM,3.22 µM,> 100 µM,18.5 µM,> 100 µM,2.49 µM,> 100 µM,,,6.58 µM,> 100 µM,9.69 µM,> 100 µM,3.3 µM,> 100 µM,,,5.77 µM,> 100 µM
Cc1ccc(Oc2nc3ccccc3cc2-c2nnc(Cn3c(COc4ccccc4)nc4ccccc43)o2)cc1,0.431 µM,1.64 µM,2.59 µM,> 100 µM,5.99 µM,31.4 µM,6.34 µM,21.1 µM,2.39 µM,8.45 µM,2.71 µM,10.6 µM,,,0.734 µM,8.53 µM,1.08 µM,4.79 µM,2.61 µM,14.6 µM
CN(C)CCNC(=O)c1nc([N+](=O)[O-])cn1C,,> 100 µM,,> 100 µM,,,,> 100 µM,,> 100 µM,,,,> 100 µM,,> 100 µM,,> 100 µM,,> 100 µM
NC1=NC(c2ccc(F)cc2)C2=C(N1)c1ccc3ccccc3c1OCC2 (centres undefined),,,3.1 µM,> 100 µM,9.57 µM,57.4 µM,> 100 µM,> 100 µM,,,18.7 µM,> 100 µM,> 100 µM,> 100 µM,2.37 µM,> 100 µM,,,13.5 µM,> 100 µM
OCc1ccc(Oc2c3ccccc3nc3occc23)cc1,15.9 µM,29.4 µM,30.9 µM,> 100 µM,,,> 100 µM,> 100 µM,20.7 µM,65.5 µM,4.7 µM,23.2 µM,,,38.5 µM,> 100 µM,,,6.94 µM,62.4 µM
CC(C)=CC1CC(C)C2(CCC3(C)CC4C(C(=O)CC4(C)O)/C(C=O)=C\CC32)O1 (centres undefined),,0.15 µM,,0.232 µM,,0.147 µM,,0.097 µM,,0.0613 µM,,0.098 µM,,0.316 µM,,0.0945 µM,,,,0.143 µM
CN(C)S(=O)(=O)c1ccc(Nc2ccc(O)c3c2C(=O)c2c([N+](=O)[O-])ccc(O)c2C3=O)cc1,,> 100 µM,,> 100 µM,,,,> 100 µM,,> 100 µM,,> 100 µM,,> 100 µM,,> 100 µM,,> 100 µM,,> 100 µM
COc1ccc(/C=C\c2cc(OC)c(OC)c(OC)c2)cc1OCC(=O)Nc1nc2ccc(OC(F)(F)F)cc2s1,3.92 µM,> 100 µM,3.43 µM,> 100 µM,4.3 µM,62.2 µM,3.16 µM,21.7 µM,5.83 µM,> 100 µM,,,3.29 µM,> 100 µM,3.55 µM,> 100 µM,5.65 µM,> 100 µM,3.95 µM,> 100 µM
Cc1ccc(/C(=C/C=C(C#N)C#N)Sc2ccccn2)cc1,2.35 µM,5.71 µM,1.55 µM,10.8 µM,2.53 µM,7.06 µM,6.49 µM,19.6 µM,,,15.6 µM,> 28.1 µM,7.15 µM,35.6 µM,3.06 µM,10.4 µM,0.474 µM,1.96 µM,4 µM,> 24.7 µM
